The source of these data is patent publication US4336397A, “2,4-Dioxo-4-substituted-1-butanoic acid derivatives useful in treating urinary tract calcium oxalate lithiasis” (Merck & Co., Inc., priority 1980, dated 1982).

The assay deals with T1, pig liver glycolate oxidase (Sus scrofa, UniProt I3LVF1).
T1 construct: The enzyme was pig liver glycolate oxidase; from tissue; host or cells: pig liver
T1 sequence (I3LVF1 1-370): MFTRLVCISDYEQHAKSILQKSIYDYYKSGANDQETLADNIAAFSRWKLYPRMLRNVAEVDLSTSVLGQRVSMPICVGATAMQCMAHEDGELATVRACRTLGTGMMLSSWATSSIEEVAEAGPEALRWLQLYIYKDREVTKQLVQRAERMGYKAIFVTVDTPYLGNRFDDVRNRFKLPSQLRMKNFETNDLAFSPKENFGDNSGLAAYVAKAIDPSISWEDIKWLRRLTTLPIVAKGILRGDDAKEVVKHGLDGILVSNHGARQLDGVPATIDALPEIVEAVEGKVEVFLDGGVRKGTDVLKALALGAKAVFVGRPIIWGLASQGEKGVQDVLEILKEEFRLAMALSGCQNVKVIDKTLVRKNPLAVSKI
Briefly: Glycolate Oxidase Enzyme Inhibition. It is filed as biochemical. Conditions: 25° C., 0.10 M phosphate buffer, pH 7.0, 3 mM EDTA; 2×10^-4 M sodium glycolate; initial rates 1 to 3 minutes, 600 nm. As to the method: The usefulness of the compounds of the present invention in treating urinary tract, especially renal, calcium oxalate lithiasis, is shown by the ability of those compounds to inhibit the glycolate oxidase enzyme. […] The activity of the enzyme, in turn, was measured by following the rate of reduction of sodium 2,6-dichlorophenyl-indophenol by sodium glycolate in the presence of the enzyme. The enzyme was pig liver glycolate oxidase. The reaction was followed spectrophotometrically at 600 nm. The assay was conducted at 25° C. in a 0.10 M phosphate buffer, pH 7.0, containing 3 mM EDTA. Initial substrate concentrations were 5×10^-5 M of […] and 2×10^-4 M of sodium glycolate. Reactions were initiated by the addition of enzyme. Initial rates during the period from 1 to 3 minutes after the addition of enzyme were recorded on a Beckman Acta M-VI spectrophotometer. One control was run simultaneously with three reactions, and all initial rates were adjusted to a common control rate. For further details of this procedure, see Randall et al., J. Med. Chem., 22, 6,612 (1979).
As to `O=C(O)C(=O)CC(=O)c1ccc(C2CCCc3ccccc32)cc1` (centres unmarked) [4-[4-(1,2,3,4-tetrahydro-1-naphthalenyl)phenyl]-2,4-dioxo-1-butanoic acid], the 50% inhibitory concentration (IC50) amounted to 2.1 µM.
For `CCCCCCCCCc1ccc(C(=O)CC(=O)C(=O)O)cc1` [2,4-dioxo-4-(4-nonylphenyl)-1-butanoic acid] the value was 0.67 µM.
In turn, `O=C(O)C(=O)CC(=O)c1ccc(-c2ccc(Br)cc2)cc1` [4-[(4'-bromo-1,1'-biphenyl)-4-yl]-2,4-dioxo-1-butanoic acid] yielded an IC50 of 0.07 µM.
`O=C(O)C(=O)CC(=O)c1ccc(C2CCCCC2)cc1` [4-(4-cyclohexylphenyl)-2,4-dioxo-1-butanoic acid] came in with a 50% inhibitory concentration (IC50) of 2.5 µM.
`O=C(O)C(=O)CC(=O)c1ccc(Cc2ccc(Cl)c(Cl)c2)cc1` [4-[4-(3,4-dichlorophenylmethyl)phenyl]-2,4-dioxo-1-butanoic acid] registered an IC50 of 0.46 µM.
